The values below come from patent EP0247507A2, “Composition for transdermal therapeutical systems of high-ceiling diuretics, and process for producing it” (priority 1986, dated 1987).

The experiment relates to Ratte. The experiment can be described thus: Salidiuretic effect in the rat (urine volume, Na, K, Cl excretion) after percutaneous (TTS) or oral administration. The experiment is classed as in vivo. The text has this: Die folgenden Beispiele sollen die Erfindung erläutern. Die Zusammensetzungen wurden durch Mischen der Wirkstoffe mit der Grundlage in einem Rührwerk mit eingebautem Homogenisator erhalten. Als transdermale therapeutische Systeme wurden aus dem deutschen Gebrauchsmuster 84 07 036 bekannte Pflasterpackungen verwendet.

Setting [1] is: Piretanid 20 mg/rat p.o. (suspended in 2 % aqueous starch solution), collection period 1 - 5 h, n = 2.
[2] abbreviates: Piretanid 20 mg/rat p.o. (suspended in 2 % aqueous starch solution), collection period 1 - 24 h, n = 2.
Where [3] appears, read: Piretanid 20 mg/rat p.o. (suspended in 2 % aqueous starch solution), collection period 6 - 24 h, n = 2.
[4] abbreviates: Furosemid 5 mg/rat p.o. (suspended in 2 % aqueous starch solution), collection period 1 - 5 h, n = 4.
Setting [5] is: Furosemid 5 mg/rat p.o. (suspended in 2 % aqueous starch solution), collection period 1 - 24 h, n = 4.
[6] abbreviates: Furosemid 5 mg/rat p.o. (suspended in 2 % aqueous starch solution), collection period 6 - 24 h, n = 4.

Regarding `NS(=O)(=O)c1cc(C(=O)O)cc(N2CCCC2)c1Oc1ccccc1` [Piretanid, 4-Phenoxy-3-(1-pyrrolidinyl)-5-sulfamoylbenzoesäure], under setting [1], the Chlorid worked out at 8.36 mmol/kg, the Kalium is given as 1.92 mmol/kg, the Natrium is reported as 7.07 mmol/kg and the Urin is 65.0 mL/kg. Under setting [2], the Chlorid is recorded as 11.36 mmol/kg, the Kalium came to 11.67 mmol/kg, the Natrium is 11.78 mmol/kg and the Urin turned out to be 112.1 mL/kg. Under setting [3], this compound had a Chlorid of 3.00 mmol/kg, a Kalium of 9.75 mmol/kg, a Natrium of 4.71 mmol/kg and a Urin of 47.1 mL/kg.

Under setting [4], `NS(=O)(=O)c1cc(C(=O)O)c(NCc2ccco2)cc1Cl` [Furosemid, 4-Chlor-N-furfuryl-5-sulfamoylanthranilsäure] registered a Chlorid of 6.10 ± 0.62 mmol/kg, a Kalium of 1.40 ± 0.16 mmol/kg, a Natrium of 4.81 ± 0.75 mmol/kg and a Urin of 47.8 ± 3.5 mL/kg. Under setting [5], this compound displayed a Chlorid of 6.59 ± 0.61 mmol/kg, a Kalium of 3.88 ± 0.88 mmol/kg, a Natrium of 6.03 ± 0.75 mmol/kg and a Urin of 59.7 ± 6.2 mL/kg. Under setting [6], this compound had a Chlorid of 0.49 ± 0.11 mmol/kg, a Kalium of 2.48 ± 0.79 mmol/kg, a Natrium of 1.22 ± 0.21 mmol/kg and a Urin of 11.9 ± 3.6 mL/kg.
